Our source for the Ames test values is patent publication US6740759B1, “Method for producing 2-alkyl-4-isothiazoline-3-one” (Chemicrea, Inc., priority 1999, dated 2004).

This data set can be described thus: mutagenicity (Ames) testing of the crystals obtained. Details: key: A “+” signifies a positive adverse effect on the body; a “−” denotes no adverse effect. The settings on record: crystals obtained in the example. The data set is classed as cell-based. On the procedure:
The numbers in the table enclosed by parentheses in the column of solvents used in the reaction denote the molar fraction of the solubility of hydrogen chloride at normal temperature/pressure. The purity of the crystals obtained in Working Examples 1 to 7 and in the Comparative Example was analyzed by high-performance liquid chromatography and submitted to mutagenicity (Ames) testing. A “+” signifies a positive adverse effect on the body while a “−” denotes no adverse effect.

`Cn1sccc1=O` [Working Example 3, 2-methyl-4-isothiazoline-3-one]: the Ames test entry was “−”.

Turning to `CCCCCCCCn1sccc1=O` [Working Example 4, 2-n-octyl-4-isothiazoline-3-one], the Ames test entry is recorded as “−”.

In the case of `O=c1ccsn1Cc1ccccc1` [Working Example 7, 2-benzyl-4-isothiazoline-3-one], the Ames test entry is recorded as “−”.
